The NIST ThermoML archive (doi:10.1016/j.fluid.2010.03.017)
Numbers after ± are expanded uncertainties.

Tests used:
[1] = cn = amount concentration of the nth substance listed, in mol/dm3; settings: 101 kPa, Liquid
[2] = specific heat capacity at constant pressure; cn = amount concentration of the nth substance listed, in mol/dm3; settings: 101 kPa, Liquid, heat flux microcalorimetry

| Structure (SMILES) | mass density ([1]; 311.65 K, c2 = 0) [kg/m3] | mass density ([1]; 314.65 K, c2 = 0) [kg/m3] | specific heat capacity ([2]; 308.65 K, c2 = 0) [J/K/kg] | specific heat capacity ([2]; 311.65 K, c2 = 0) [J/K/kg] | specific heat capacity ([2]; 314.65 K, c2 = 0) [J/K/kg] | mass density ([1]; 308.65 K, c1 = 0.005) [kg/m3] | mass density ([1]; 308.65 K, c1 = 0.01) [kg/m3] | mass density ([1]; 308.65 K, c1 = 0.02) [kg/m3] | mass density ([1]; 308.65 K, c1 = 0.05) [kg/m3] | mass density ([1]; 308.65 K, c1 = 0.1) [kg/m3] | mass density ([1]; 311.65 K, c1 = 0.005) [kg/m3] | mass density ([1]; 311.65 K, c1 = 0.01) [kg/m3] | mass density ([1]; 311.65 K, c1 = 0.02) [kg/m3] | mass density ([1]; 311.65 K, c1 = 0.05) [kg/m3] | mass density ([1]; 311.65 K, c1 = 0.1) [kg/m3] | mass density ([1]; 314.65 K, c1 = 0.005) [kg/m3] | mass density ([1]; 314.65 K, c1 = 0.01) [kg/m3] | mass density ([1]; 314.65 K, c1 = 0.02) [kg/m3] | mass density ([1]; 314.65 K, c1 = 0.05) [kg/m3] | mass density ([1]; 314.65 K, c1 = 0.1) [kg/m3] | also measured |
| --- | --- | --- | --- | --- | --- | --- | --- | --- | --- | --- | --- | --- | --- | --- | --- | --- | --- | --- | --- | --- | --- |
| CC#N [acetonitrile] + [Cl-].c1ccc([P+](c2ccccc2)(c2ccccc2)c2ccccc2)cc1 | 762.77 ± 2 | 759.726 ± 2.1 | 2274.3 ± 45 | 2280.4 ± 46 | 2286.5 ± 46 |  |  |  |  |  |  |  |  |  |  |  |  |  |  |  | mass density ([1]; 308.65 K, c2 = 0): 765.82 ± 2 kg/m3 |
| CCO [ethanol] + [Cl-].c1ccc([P+](c2ccccc2)(c2ccccc2)c2ccccc2)cc1 | 773.4 ± 1.9 | 770.84 ± 2 | 2592.8 ± 52 | 2653.8 ± 53 | 2694.1 ± 54 |  |  |  |  |  |  |  |  |  |  |  |  |  |  |  | mass density ([1]; 308.65 K, c2 = 0): 775.93 ± 1.9 kg/m3 |
| CO [methanol] + [Cl-].c1ccc([P+](c2ccccc2)(c2ccccc2)c2ccccc2)cc1 | 773.896 ± 1.9 | 771.1 ± 2 | 2554.5 ± 51 | 2577 ± 52 | 2621 ± 52 |  |  |  |  |  |  |  |  |  |  |  |  |  |  |  | mass density ([1]; 308.65 K, c2 = 0): 776.519 ± 1.9 kg/m3 |
| [Cl-].c1ccc([P+](c2ccccc2)(c2ccccc2)c2ccccc2)cc1 [tetraphenylphosphonium chloride] + CC#N |  |  |  |  |  | 767.478 ± 2 | 768.43 ± 2 | 772.35 ± 2 | 776.18 ± 1.9 | 784.14 ± 1.9 | 764.4 ± 2 | 765.22 ± 2 | 769.19 ± 2 | 773.42 ± 1.9 | 780.77 ± 1.9 | 762.76 ± 2 | 762.76 ± 2 | 766.82 ± 2 | 770.87 ± 2 | 777.19 ± 1.9 | specific heat capacity ([2]; 308.65 K, c1 = 0.005): 2269.4 ± 45 J/K/kg; specific heat capacity ([2]; 308.65 K, c1 = 0.01): 2269.1 ± 45 J/K/kg; specific heat capacity ([2]; 308.65 K, c1 = 0.02): 2258.9 ± 45 J/K/kg; specific heat capacity ([2]; 308.65 K, c1 = 0.05): 2255.3 ± 45 J/K/kg; specific heat capacity ([2]; 308.65 K, c1 = 0.1): 2238.7 ± 45 J/K/kg; specific heat capacity ([2]; 311.65 K, c1 = 0.005): 2275.5 ± 46 J/K/kg; specific heat capacity ([2]; 311.65 K, c1 = 0.01): 2277 ± 46 J/K/kg; specific heat capacity ([2]; 311.65 K, c1 = 0.02): 2267.8 ± 45 J/K/kg; specific heat capacity ([2]; 311.65 K, c1 = 0.05): 2265.6 ± 45 J/K/kg; specific heat capacity ([2]; 311.65 K, c1 = 0.1): 2250.6 ± 45 J/K/kg; specific heat capacity ([2]; 314.65 K, c1 = 0.005): 2281.3 ± 46 J/K/kg; specific heat capacity ([2]; 314.65 K, c1 = 0.01): 2282.6 ± 46 J/K/kg; specific heat capacity ([2]; 314.65 K, c1 = 0.02): 2274.3 ± 45 J/K/kg; specific heat capacity ([2]; 314.65 K, c1 = 0.05): 2267.5 ± 45 J/K/kg; specific heat capacity ([2]; 314.65 K, c1 = 0.1): 2257.9 ± 45 J/K/kg |
| [Cl-].c1ccc([P+](c2ccccc2)(c2ccccc2)c2ccccc2)cc1 [tetraphenylphosphonium chloride] + CCO |  |  |  |  |  | 777.31 ± 1.9 | 778.02 ± 1.9 | 778.83 ± 1.9 | 784.24 ± 1.9 | 791.62 ± 1.8 | 775.32 ± 1.9 | 775.16 ± 1.9 | 776.11 ± 1.9 | 781.91 ± 1.9 | 789.98 ± 1.9 | 772.48 ± 1.9 | 772.21 ± 1.9 | 773.38 ± 1.9 | 779.58 ± 1.9 | 787.77 ± 1.9 | specific heat capacity ([2]; 308.65 K, c1 = 0.005): 2520.9 ± 50 J/K/kg; specific heat capacity ([2]; 308.65 K, c1 = 0.01): 2545.7 ± 51 J/K/kg; specific heat capacity ([2]; 308.65 K, c1 = 0.02): 2549.3 ± 51 J/K/kg; specific heat capacity ([2]; 308.65 K, c1 = 0.05): 2555.5 ± 51 J/K/kg; specific heat capacity ([2]; 308.65 K, c1 = 0.1): 2570 ± 51 J/K/kg; specific heat capacity ([2]; 311.65 K, c1 = 0.005): 2581.5 ± 52 J/K/kg; specific heat capacity ([2]; 311.65 K, c1 = 0.01): 2600.7 ± 52 J/K/kg; specific heat capacity ([2]; 311.65 K, c1 = 0.02): 2606.3 ± 52 J/K/kg; specific heat capacity ([2]; 311.65 K, c1 = 0.05): 2607.1 ± 52 J/K/kg; specific heat capacity ([2]; 311.65 K, c1 = 0.1): 2623 ± 52 J/K/kg; specific heat capacity ([2]; 314.65 K, c1 = 0.005): 2627.1 ± 52 J/K/kg; specific heat capacity ([2]; 314.65 K, c1 = 0.01): 2638.3 ± 53 J/K/kg; specific heat capacity ([2]; 314.65 K, c1 = 0.02): 2650.8 ± 53 J/K/kg; specific heat capacity ([2]; 314.65 K, c1 = 0.05): 2650 ± 53 J/K/kg; specific heat capacity ([2]; 314.65 K, c1 = 0.1): 2633.7 ± 53 J/K/kg |
| [Cl-].c1ccc([P+](c2ccccc2)(c2ccccc2)c2ccccc2)cc1 [tetraphenylphosphonium chloride] + CO |  |  |  |  |  | 776.52 ± 1.9 | 779.51 ± 1.9 | 780.37 ± 1.9 | 787.22 ± 1.9 | 793.29 ± 1.8 | 774.51 ± 1.9 | 778.81 ± 1.9 | 777.85 ± 1.9 | 784.14 ± 1.9 | 790.42 ± 1.9 | 771.62 ± 1.9 | 775.7 ± 1.9 | 774.95 ± 1.9 | 782.06 ± 1.9 | 788.49 ± 1.9 | specific heat capacity ([2]; 308.65 K, c1 = 0.005): 2543.2 ± 51 J/K/kg; specific heat capacity ([2]; 308.65 K, c1 = 0.01): 2548.5 ± 51 J/K/kg; specific heat capacity ([2]; 308.65 K, c1 = 0.02): 2556.9 ± 51 J/K/kg; specific heat capacity ([2]; 308.65 K, c1 = 0.05): 2605.5 ± 52 J/K/kg; specific heat capacity ([2]; 308.65 K, c1 = 0.1): 2660.8 ± 53 J/K/kg; specific heat capacity ([2]; 311.65 K, c1 = 0.005): 2564.1 ± 51 J/K/kg; specific heat capacity ([2]; 311.65 K, c1 = 0.01): 2565.8 ± 51 J/K/kg; specific heat capacity ([2]; 311.65 K, c1 = 0.02): 2582.9 ± 52 J/K/kg; specific heat capacity ([2]; 311.65 K, c1 = 0.05): 2628.9 ± 53 J/K/kg; specific heat capacity ([2]; 311.65 K, c1 = 0.1): 2691.7 ± 54 J/K/kg; specific heat capacity ([2]; 314.65 K, c1 = 0.005): 2570.9 ± 51 J/K/kg; specific heat capacity ([2]; 314.65 K, c1 = 0.01): 2605.9 ± 52 J/K/kg; specific heat capacity ([2]; 314.65 K, c1 = 0.02): 2599.5 ± 52 J/K/kg; specific heat capacity ([2]; 314.65 K, c1 = 0.05): 2637.3 ± 53 J/K/kg; specific heat capacity ([2]; 314.65 K, c1 = 0.1): 2721.3 ± 54 J/K/kg |
| [Cl-].c1ccc([P+](c2ccccc2)(c2ccccc2)c2ccccc2)cc1 [tetraphenylphosphonium chloride] + O |  |  |  |  |  | 994.05 ± 0.54 | 995.67 ± 0.53 | 998.12 ± 0.52 | 996.84 ± 0.53 | 1001.06 ± 0.52 | 993.46 ± 0.54 | 994.88 ± 0.54 | 996.99 ± 0.52 | 995.58 ± 0.53 | 997.28 ± 0.53 | 991.77 ± 0.56 | 992.33 ± 0.55 | 995.43 ± 0.53 | 994.11 ± 0.54 | 995.93 ± 0.53 | specific heat capacity ([2]; 308.65 K, c1 = 0.005): 4202.5 ± 84 J/K/kg; specific heat capacity ([2]; 308.65 K, c1 = 0.01): 4203.6 ± 84 J/K/kg; specific heat capacity ([2]; 308.65 K, c1 = 0.02): 4207 ± 84 J/K/kg; specific heat capacity ([2]; 308.65 K, c1 = 0.05): 4217.3 ± 84 J/K/kg; specific heat capacity ([2]; 308.65 K, c1 = 0.1): 4229.9 ± 85 J/K/kg; specific heat capacity ([2]; 311.65 K, c1 = 0.005): 4203.6 ± 84 J/K/kg; specific heat capacity ([2]; 311.65 K, c1 = 0.01): 4206.5 ± 84 J/K/kg; specific heat capacity ([2]; 311.65 K, c1 = 0.02): 4209.8 ± 84 J/K/kg; specific heat capacity ([2]; 311.65 K, c1 = 0.05): 4218.4 ± 84 J/K/kg; specific heat capacity ([2]; 311.65 K, c1 = 0.1): 4241.9 ± 85 J/K/kg; specific heat capacity ([2]; 314.65 K, c1 = 0.005): 4203.8 ± 84 J/K/kg; specific heat capacity ([2]; 314.65 K, c1 = 0.01): 4208.4 ± 84 J/K/kg; specific heat capacity ([2]; 314.65 K, c1 = 0.02): 4211.1 ± 84 J/K/kg; specific heat capacity ([2]; 314.65 K, c1 = 0.05): 4219.7 ± 84 J/K/kg; specific heat capacity ([2]; 314.65 K, c1 = 0.1): 4244.7 ± 85 J/K/kg |
| O [water] + [Cl-].c1ccc([P+](c2ccccc2)(c2ccccc2)c2ccccc2)cc1 | 993.13 ± 0.55 | 991.68 ± 0.56 | 4182 ± 84 | 4182.2 ± 84 | 4182.4 ± 84 |  |  |  |  |  |  |  |  |  |  |  |  |  |  |  |  |
